For series [1], the system named is fungal. The following applies: cited from earlier work.
The conditions of series [2]: cited from earlier work.
The subject of series [3] is fungal. The experiment in a line: Anti-fungal activity, dispersed particle form vs. dissolved in an effective solvent.

Structures are written as SMILES.

On to `Cc1ccc(S(=O)(=O)C(I)I)cc1` [diiodomethyl-p-tolylsulfone, Benzene, 1-[(diiodomethyl)sulfonyl]-4-methyl-(9CI)], for which the “pH range over which effective” value in the series with fungal [1] is given as 2-11 pH. In addition, in series [2], the water solubility result is on record as “less than 5 ppm”. Also, the “activity retained in dispersed particle form vs. dissolved in an effective solvent” value with fungal [3] is on record as “about 100%”.

The values are drawn from patent US20060171911A1, “Diiodomethyl-p-tolylsulfone as a particulate dispersion in a liquid solvent in combination with an anti-dandruff active” (priority 2005, published 2006).
